Laboratory results taken from patent US10010629B2, “Compositions and methods for in vivo imaging” (The Regents of the University of California, priority 2010, dated 2018).
Entries after “also recorded” stand apart in the source; their conditions may differ. Blank lines part the entries; values can stand above or below the compound they belong to.

Assays:
L2G85 mice [1] = assay: BAT imaging after intraperitoneal injection; format: in vivo; settings: for signal from BAT (intact and excised) after intraperitoneal injection: i.p., 0.1% BSA in PBS, 30 min
Procedure: Intraperitoneal injection: Anesthetized mice received a 100 μl volume intraperitoneal injection of 200 μM FFA-luc or FFA-S-luc (0.014 mg) bound to 0.1% BSA in PBS immediately prior to imaging. Luminescent images were acquired with a 3-minute exposure back to back for 30-minutes.
BAT imaging: Anesthetized mice received 100 μl volume intraperitoneal injection of 200 μM FFA-luc (0.014 mg) immediately prior to imaging. Luminescent images were acquired with a 3-minute exposure back to back for 30-minutes. For BAT activation imaging, mice received intraperitoneal injections of the β-adrenergic stimulator CL316,243 at 1 mg/kg 20 minutes prior to the FFA-luc injection.

L2G85 mice [2] = assay: Intestinal uptake after oral gavage, bioluminescence imaging; format: in vivo; settings: for bioluminescent signal in the live animal after oral gavage: luciferase-expressing mice
Procedure: To translate the imaging technique described above to in vivo systems, L2G85 mice were utilized. L2G85 mice express luciferase throughout their bodies. Initial experiments focused on detection of intestinal FFA uptake using oral gavages of the FFA-luc compound. […] This is consistent with known fatty acid uptake localization and kinetics.
Gavage of FFA-luc and FFA-S-luc: Anesthetized mice received a 50 μl volume gavage of 300 μM FFA-luc or FFA-S-luc (0.01 mg) in a vehicle of 1:1 PEG 400 and propylene glycol. Mice were awake for 5 minutes post-gavage to stimulate peristalsis before they were re-anesthetized for imaging. Mice were under constant isoflurane administration in the IVIS Spectrum In Vivo Imager and luminescent images were acquired with a 5-minute exposure back to back for 60 minutes.
CT scans: Mice received a 100 μl volume gavage of 80 mg barium sulfate. After one hour, mice received a second barium sulfate gavage, immediately followed by a 50 μl volume gavage of 300 μM FFA-luc (0.01 mg) in a vehicle of 1:1 PEG 400 and propylene glycol. Mice were placed in a Mouse Imaging Shuttle Adaptor (Caliper Life Sciences) and luminescent images were acquired with a 5-minute exposure back to back for 60 minutes. Mice were then transferred to the Quantum FX μCT for CT imaging without disruption of position. Co-registration of luminescent and CT images were performed with Living Image software.

3T3-L1-luc adipocytes = assay: Cell-based fatty acid uptake assay (bioluminescence), adipocytes; settings: BSA-bound, 0-100 μM (comparison at 20 μM, 30 min)
Procedure: (§1) Luciferase expressing cellular model (3T3-L1-Luc Cells): 3T3-L1 fibroblasts (ATCC) were stably transfected with the pGL4.51[luc2/CMV/Neo] vector (Promega). Clones with the highest level of luciferase expression were isolated and expanded.
Cell culture and treatment: 3T3-L1-luc fibroblasts were grown in DMEM containing 10% fetal bovine serum with 2 mM L-glutamine and 1% penicillin/streptomycin (DMEM/FBS). […] Differentiated cells were used in experiments on days 8-12 of differentiation.
(§2) Cell-based fatty acid uptake assays: 3T3-L1-luc adipocytes or fibroblasts were seeded into black-wall/clear-bottom-96-well plates (Costar) and treated with 100 μl of a fatty acid uptake buffer consisting of 0.1% BSA in Hank's balanced salt solution (HBSS) in addition to 2-100 μM of the compound. Plates were read immediately and luminescent images were acquired with a 5-minute exposure time back to back for 60 minutes. All cell-based assays utilized the same kinetic acquisition settings.

3T3-L1-luc fibroblasts = assay: Cell-based fatty acid uptake assay (bioluminescence), undifferentiated fibroblasts; settings: 20 μM FFA-luc, 30 min
Procedure: as §1
Cell culture and treatment: 3T3-L1-luc fibroblasts were grown in DMEM containing 10% fetal bovine serum with 2 mM L-glutamine and 1% penicillin/streptomycin (DMEM/FBS). A cell differentiation protocol was followed as previously described (Baldini et al., Cloning of a Rab3 isotype predominantly expressed in adipocytes. Proc Natl Acad Sci USA 89, 5049 (Jun. 1, 1992); Stahl et al., Insulin causes fatty acid transport protein translocation and enhanced fatty acid uptake in adipocytes. Dev Cell 2, 477 (2002)). […]
as §2, with “All cell-based assays utilized the same kinetic acquisition settings.” left out

L2G85 mice [3] = settings: mouse, in vivo
Procedure: (§3) To monitor uptake of FFA-luc by internal organs, FFA-luc was bound to the physiological carrier of fatty acids in the serum, i.e. albumin. As a control, animals were injected with an albumin luciferin mix.
(§4) Animal models: Transgenic mice ubiquitously expressing luciferase under control of the actin promoter were used.
(§5) Imaging equipment and software: All luminescent/photographic images were captured with the IVIS Spectrum (Caliper Life Sciences). Total flux (photons/sec) of regions of interest were calculated with the IVIS Living Image software. CT data was acquired with the Quantum FX μCT (Caliper Life Sciences).
(§6) Intravenous injection: Restrained mice received 100 μl volume tail vein injections of 20 μM FFA-luc or FFA-S-luc (0.0014 mg) bound to 0.1% bovine serum albumin (BSA) in phosphate buffered saline (PBS). Mice were immediately anesthetized and luminescent images with a 1-minute exposure were acquired.

L2G85 mice [4] = assay: Uptake after intravenous injection (albumin-bound), bioluminescence imaging; settings: i.v., bound to/mixed with albumin
Procedure: as §3, §4, §5, §6

[5] = system: FFA-luc uptake by 3T3-L1 adipocytes; assay: FFA-SS-Luc competition assay; format: cell-based
Procedure: FFA-SS-Luc competition assay: 3T3-L1-luc adipocytes were seeded into black-wall/clear-bottom-96-well plates (Costar) and treated with 100 μl fatty acid uptake buffer including 20 μM FFA-luc and a titration of 0-2 mM oleate or methyl-oleate immediately prior to imaging.

[6] = system: FFA-luc uptake by 3T3-L1-luc adipocytes; assay: Insulin-mediated uptake of FFA-luc; format: cell-based; settings: 20 μM FFA-luc
Procedure: Insulin-mediated uptake of FFA-luc: 3T3-L1-luc adipocytes were seeded into black-wall/clear-bottom-96-well plates (Costar). One group of cells was serum starved in DMEM for 5 hours followed by the addition of […] fatty acid uptake buffer with 20 μM FFA-luc immediately prior to imaging. A second group of cells was treated with DMEM/fetal bovine serum (FBS) for 5 hours followed by the addition of 100 μl fatty acid uptake buffer with 20 μM FFA-luc and 1 ug/mL insulin immediately prior to imaging.

Compound: C[C@H](Cc1ccc2c(c1)OC(C(=O)[O-])(C(=O)[O-])O2)NC[C@H](O)c1cccc(Cl)c1.[Na+].[Na+] [CL316,243, reference compound]
effect on compound 1 uptake by BAT (L2G85 mice [1]; CL316,243 1 mg/kg i.p.): highly reproducible and significant increase

bioluminescent signal in the live animal after oral gavage (L2G85 mice [2]): weak and diffuse signal | signal from BAT (intact and excised) after intraperitoneal injection (L2G85 mice [1]): little or no signal
Compound: O=C(O)CCCCCCCCCCCCCCCSCCCOC(=O)Oc1ccc2nc(C3=N[C@@H](C(=O)O)CS3)sc2c1 [FFA-S-luc, (S)-2-(6-((3-(15-carboxypentadecylthio)propoxy)carbonyloxy)benzo[d]thiazol-2-yl)-4,5-dihydrothiazole-4-carboxylic acid]

signal from stomach and colon, excised GI tract after oral gavage (L2G85 mice [2]; ex vivo, stomach and colon): negative | signal from BAT (intact and excised) after intraperitoneal injection (L2G85 mice [1]): robust light signal | uptake by excised organs after tail vein injection (L2G85 mice [3]): taken up by several organs | light production of removed interscapular brown adipose tissue after injection (L2G85 mice [3]; iv): robust light production | photon emission from isolated heart after intravenous injection (L2G85 mice [3]; iv): high signal | photon emission from isolated liver after intravenous injection (L2G85 mice [3]; iv): low signal
Compound: O=C(O)CCCCCCCCCCCCCCCSSCCCOC(=O)Oc1ccc2nc(C3=N[C@@H](C(=O)O)CS3)sc2c1 [FFA-luc, (S)-2-(6-((3-((15-carboxypentadecyl)disulfanyl)propoxy)carbonyloxy)benzo[d]thiazol-2-yl)-4,5-dihydrothiazole-4-carboxylic acid]
uptake by luciferase-expressing 3T3 L1 adipocytes (light signal / uptake rate) (3T3-L1-luc adipocytes): robust, dose-dependent signal | uptake kinetics by undifferentiated fibroblast-like 3T3 L1 cells versus adipocytes (3T3-L1-luc fibroblasts): significantly lower | signal from small intestine, excised GI tract after oral gavage (L2G85 mice [2]; ex vivo, small intestine / duodenum): robust signal; also recorded: strongest signal was generated by the proximal duodenum | bioluminescent signal in the live animal after oral gavage (L2G85 mice [2]): distinct signal emanating from an area consistent with the small intestine; also recorded: abdominal signal

Compound: COC(=O)CCCCCCCCCCCCCCCSSCCCOC(=O)Oc1ccc2nc(C3=N[C@@H](C(=O)O)CS3)sc2c1 [Me-FFA-luc, (S)-2-(6-((3-((16-methoxy-16-oxohexadecyl)disulfanyl)propoxy)carbonyloxy)benzo[d]thiazol-2-yl)-4,5-dihydrothiazole-4-carboxylic acid]
uptake by luciferase-expressing 3T3 L1 adipocytes (light signal / uptake rate) (3T3-L1-luc adipocytes; listed as methyl ester of the FFA-luc): slower, non-saturable uptake | uptake by luciferase-expressing 3T3 L1 adipocytes (light signal / uptake rate) (3T3-L1-luc adipocytes; listed as methyl-FFA-luc): significantly lower uptake rates

Compound: O=C(O)[C@H]1CSC(c2nc3ccc(O)cc3s2)=N1 [luciferin, reference compound]
uptake by luciferase-expressing 3T3 L1 adipocytes (light signal / uptake rate) (3T3-L1-luc adipocytes): significantly lower uptake rates | bioluminescent signal in the live animal after intravenous injection (L2G85 mice [4]): very rapid, bright, and delocalized signal

Compound: CCCCCCCC/C=C\CCCCCCCC(=O)OC [methyl-oleate]
competition with FFA-luc uptake by adipocytes ([5]; 20 μM FFA-luc, excess competitor (0-2 mM titration)): did not compete and not

Compound: CCCCCCCC/C=C\CCCCCCCC(=O)O [oleate]
IC50 ([5]; Mus musculus, 3T3-L1, read-out: IC50, inhibition of uptake of FFA-luc by 3T3-L1 adipocytes): 17 µM

Compound: insulin
effect on FFA-luc uptake by adipocytes [6]: stimulatory effect
